Columns and labels:
hERG (KCNH2) = hERG (KCNH2) (Homo sapiens, UniProt Q12809); experiment: Inhibition of human ERG at 37 degC; conditions: human
[1] = Stabilization of human […] mRNA splicing expressed in human SMA-derived fibroblasts at 121 to 605 nM by RT-qPCR analysis; assay type: ADME; conditions: 0.605 µM
[2] = Toxicity in po dosed cynomolgus monkey assessed phospholipidosis administered via gavage up to 39 weeks; assay type: organism-based, Macaca fascicularis; conditions: in vivo, 6552 h
Mus musculus [3] = experiment: In-vivo stabilization SMN2 mRNA in SMA delta7 ip dosed mouse assessed as increase in number of motor neurons dosed daily starting from postnatal day 3 to postnatal day 14 by immunohistochemistry; assay type: functional, organism-based
[4] = Cardiotoxicity in cynomolgus monkey assessed as prolongation of QTc interval time; assay type: toxicity, Macaca fascicularis
[5] = Oral bioavailability in rat at 5.5 mg/kg administered as single dose; assay type: ADME, organism-based; conditions: in vivo
Mus musculus [6] = experiment: In-vivo stabilization SMN2 mRNA in SMA delta7 ip dosed mouse assessed as increased muscle size in the EDL dosed daily starting from postnatal day 3 to postnatal day 14 by immunohistochemistry; assay type: functional, organism-based
Mus musculus [7] = experiment: In-vivo stabilization of SMN2 mRNA in SMA neonatal delta7 mouse model assessed as increase in SMN protein levels in brain at 0.1 mg/kg, ip dosed once daily starting from postnatal day 3 to postnatal day 9 relative to control; assay type: functional
Mus musculus [8] = experiment: In-vivo stabilization of SMN2 mRNA in SMA adult C/C allele mouse model assessed as increase in SMN protein levels in brain at 10 mg/kg, po dosed once daily for 10 days relative to control; assay type: functional
[9] = Volume of distribution at steady state in cynomolgus monkey at 0.1 mg/kg, iv administered as single dose; assay type: ADME, organism-based, Macaca fascicularis; conditions: in vivo, read-out: Vdss
[10] = Fraction unbound in human plasma; assay type: ADME, cell-free
[11] = molecular target: Survival motor neuron protein (Homo sapiens) (UniProt Q16637); experiment: Activation of SMN protein in human SMA-derived fibroblasts after 48 hrs by HTRF assay
[12] = Stabilization of human APLP2 mRNA splicing expressed in human SMA-derived fibroblasts at 121 to 605 nM by RT-qPCR analysis; assay type: ADME; conditions: 0.605 µM
[13] = Chronic toxicity in retina of po dosed cynomolgus monkey assessed as RPE hypertrophy 39 weeks by histological analysis; assay type: organism-based, Macaca fascicularis; conditions: in vivo, 6552 h
Homo sapiens = species on record: Homo sapiens; experiment: Modulation of human SMN2 mRNAsplicing expressed in HEK293H cells by qRT-PCR analysis; assay type: cell-based
[14] = Effect on FOXM1b/c mRNA splicing in cynomolgus monkey induced pluripotent stem cells by RT-qPCR analysis; assay type: ADME, Macaca fascicularis; conditions: Macaca fascicularis
[15] = Chronic toxicity in retina of po dosed cynomolgus monkey assessed as multifocal peripheral retina degeneration after 39 weeks by OCT analysis; assay type: organism-based, Macaca fascicularis; conditions: in vivo, 6552 h
Mus musculus [16] = experiment: In-vivo stabilization of SMN2 mRNA in SMA neonatal delta7 mouse model assessed as increase in SMN protein levels in quadriceps at 10 mg/kg, ip dosed once daily starting from postnatal day 3 to postnatal day 9 relative to control; assay type: functional
Mus musculus [17] = experiment: In-vivo stabilization SMN2 mRNA in SMA delta7 mouse assessed as increase in mean survival day at 0.1 mg/kg, ip dosed daily starting from postnatal day 3 to postnatal day 23 followed by po dosing 0.3 mg/kg per day via gavage (reference value: 10.5 days); assay type: functional
[18] = Oral bioavailability in cynomolgus monkey at 0.5 mg/kg administered as single dose; assay type: ADME, organism-based, Macaca fascicularis; conditions: in vivo
[19] = Efflux ratio of permeability in human SMA-derived fibroblasts; assay type: ADME, cell-based, Fibroblast; conditions: not told
[20] = Toxicity in po dosed rat assessed phospholipidosis administered via gavage up to 26 weeks; assay type: organism-based; conditions: in vivo, 4368 h
[21] = AUC (0 to 24 hrs) in SMA neonatal delta7 mouse model at 0.1 mg/kg, ip dosed once daily starting from postnatal day 3 to postnatal day 9; assay type: ADME, organism-based; parameters: time < 24 hr, dose 0.1 mg/kg, route intraperitoneal; conditions: in vivo
[22] = Chronic toxicity in retina of po dosed cynomolgus monkey assessed as formation of microcystic spaces in the inner retinal layers after 39 weeks by OCT analysis; assay type: organism-based, Macaca fascicularis; conditions: in vivo, 6552 h
[23] = Effect on FOXM1b/c mRNA splicing in human induced pluripotent stem cells by RT-qPCR analysis; assay type: ADME; conditions: Homo sapiens
[24] = AUC (0 to 24 hrs) in SMA adult C/C allele mouse model at 1 mg/kg, po dosed once daily for 10 days; assay type: ADME, organism-based; parameters: dose 1 mg/kg, time < 24 hr, route oral; conditions: in vivo
Mus musculus [25] = experiment: In-vivo stabilization of SMN2 mRNA in SMA neonatal delta7 mouse model assessed as increase in SMN protein levels in quadriceps at 1 mg/kg, ip dosed once daily starting from postnatal day 3 to postnatal day 9 relative to control; assay type: functional
[26] = Chronic toxicity in retina of po dosed cynomolgus monkey assessed as effect on outer nuclear layers after 39 weeks by histological analysis; assay type: organism-based, Macaca fascicularis; conditions: in vivo, 6552 h
[27] = Fraction unbound in mouse plasma; assay type: ADME, cell-free
Mus musculus [28] = experiment: In-vivo stabilization of SMN2 mRNA in SMA neonatal delta7 mouse model assessed as increase in SMN protein levels in brain at 1 mg/kg, ip dosed once daily starting from postnatal day 3 to postnatal day 9 relative to control; assay type: functional
[29] = Stabilization of human STRN3 mRNA splicing expressed in human SMA-derived fibroblasts at 121 to 605 nM by RT-qPCR analysis; assay type: ADME; conditions: 0.605 µM
Mus musculus [30] = experiment: In-vivo stabilization of SMN2 mRNA in SMA neonatal delta7 mouse model assessed as increase in SMN protein levels in brain at 0.3 mg/kg, ip dosed once daily starting from postnatal day 3 to postnatal day 9 relative to control; assay type: functional
[31] = Half life in cynomolgus monkey at 0.5 mg/kg, po administered as single dose; assay type: ADME, organism-based, Macaca fascicularis; conditions: in vivo
Mus musculus [32] = experiment: In-vivo stabilization SMN2 mRNA in SMA delta7 ip dosed mouse assessed as increase in muscle size dosed daily starting from postnatal day 3 to postnatal day 14 by immunohistochemistry; assay type: functional, organism-based
[33] = Chronic toxicity in retina of po dosed cynomolgus monkey assessed as effect on photo-receptor layers after 39 weeks by histological analysis; assay type: organism-based, Macaca fascicularis; conditions: in vivo, 6552 h
[34] = Half life in rat at 5.5 mg/kg, po administered as single dose; assay type: ADME, organism-based; conditions: in vivo
Mus musculus [35] = experiment: In-vivo stabilization SMN2 mRNA in SMA delta7 ip dosed mouse assessed as increase in percentage of fully innervated NMJs dosed daily starting from postnatal day 3 to postnatal day 14 by immunohistochemistry; assay type: functional, organism-based
Mus musculus [36] = experiment: In-vivo stabilization of SMN2 mRNA in SMA neonatal delta7 mouse model assessed as increase in SMN protein levels in quadriceps at 0.3 mg/kg, ip dosed once daily starting from postnatal day 3 to postnatal day 9 relative to control; assay type: functional
Mus musculus [37] = experiment: In-vivo stabilization of SMN2 mRNA in SMA neonatal delta7 mouse model assessed as increase in SMN protein levels in brain at 10 mg/kg, ip dosed once daily starting from postnatal day 3 to postnatal day 9 relative to control; assay type: functional
[38] = Volume of distribution at steady state in rat at 1.9 mg/kg, iv administered as single dose; assay type: ADME, organism-based; conditions: in vivo, read-out: Vdss

hERG (KCNH2), sequence (Q12809 whole entry): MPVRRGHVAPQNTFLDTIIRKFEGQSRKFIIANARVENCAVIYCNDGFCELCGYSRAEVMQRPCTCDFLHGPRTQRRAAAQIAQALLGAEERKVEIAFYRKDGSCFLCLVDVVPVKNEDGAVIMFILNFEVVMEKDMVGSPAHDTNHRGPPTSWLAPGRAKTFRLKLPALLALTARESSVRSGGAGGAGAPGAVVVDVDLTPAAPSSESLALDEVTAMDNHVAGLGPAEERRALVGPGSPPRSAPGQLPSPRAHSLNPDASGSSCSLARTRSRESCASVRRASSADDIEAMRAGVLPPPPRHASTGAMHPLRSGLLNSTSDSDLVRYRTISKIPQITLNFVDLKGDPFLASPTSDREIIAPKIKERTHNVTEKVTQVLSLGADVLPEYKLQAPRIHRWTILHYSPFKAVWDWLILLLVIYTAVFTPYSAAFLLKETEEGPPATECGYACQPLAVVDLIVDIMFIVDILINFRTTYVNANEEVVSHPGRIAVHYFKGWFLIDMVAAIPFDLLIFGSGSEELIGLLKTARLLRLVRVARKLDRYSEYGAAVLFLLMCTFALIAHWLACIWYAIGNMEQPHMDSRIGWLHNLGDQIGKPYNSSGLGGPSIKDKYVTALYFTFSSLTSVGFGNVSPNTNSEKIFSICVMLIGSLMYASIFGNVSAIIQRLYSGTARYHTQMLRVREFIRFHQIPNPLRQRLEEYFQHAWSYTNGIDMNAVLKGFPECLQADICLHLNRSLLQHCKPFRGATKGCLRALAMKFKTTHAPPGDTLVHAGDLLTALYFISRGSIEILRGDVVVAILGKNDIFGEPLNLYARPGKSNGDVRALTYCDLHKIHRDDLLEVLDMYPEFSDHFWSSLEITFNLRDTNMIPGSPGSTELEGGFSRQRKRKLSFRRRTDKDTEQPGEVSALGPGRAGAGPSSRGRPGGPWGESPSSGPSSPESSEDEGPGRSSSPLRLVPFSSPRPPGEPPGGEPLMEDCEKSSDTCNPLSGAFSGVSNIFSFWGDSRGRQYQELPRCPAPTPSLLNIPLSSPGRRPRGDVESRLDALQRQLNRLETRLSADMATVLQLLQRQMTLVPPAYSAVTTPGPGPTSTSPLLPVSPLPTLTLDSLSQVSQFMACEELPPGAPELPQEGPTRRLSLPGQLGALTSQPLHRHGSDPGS
Survival motor neuron protein (Homo sapiens), sequence (Q16637 whole entry): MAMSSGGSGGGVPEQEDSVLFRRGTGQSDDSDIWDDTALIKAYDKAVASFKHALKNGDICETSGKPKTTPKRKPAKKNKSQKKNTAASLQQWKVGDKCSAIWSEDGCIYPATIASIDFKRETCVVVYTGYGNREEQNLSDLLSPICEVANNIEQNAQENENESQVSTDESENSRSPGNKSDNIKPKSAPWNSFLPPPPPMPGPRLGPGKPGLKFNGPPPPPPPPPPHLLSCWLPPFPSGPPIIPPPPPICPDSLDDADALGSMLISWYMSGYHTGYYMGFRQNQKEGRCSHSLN

Structure (SMILES): Cc1cn2nc(-c3cc(=O)n4cc(N5CCNC6(CC6)C5)ccc4n3)cc(C)c2n1
- IC20 (hERG (KCNH2)): > 5000 nM
- Activity [1]: Non-Toxic
- Activity [2]: Non-Toxic
- Activity (Mus musculus [3]): Dose-dependent effect
- Activity [4]: Non-Toxic
- bioavailability [5]: 100%
- Activity (Mus musculus [6]): Dose-dependent effect
- Activity (Mus musculus [7]): 28%
- Activity (Mus musculus [8]): 100%
- Vd [9]: 2 L/kg
- fraction unbound [10]: 0.11
- EC1.5 [11]: 29 nM
- Activity [12]: Non-Toxic
- Activity [13]: Toxic
- EC1.5 (Homo sapiens): 4 nM
- IC50 [14]: 155 nM
- Activity [15]: Toxic
- Activity (Mus musculus [16]): 241%
- MSD (Mus musculus [17]): 26 days
- bioavailability [18]: 43%
- efflux ratio [19]: 2.2
- Activity [20]: Non-Toxic
- AUC at 24 h [21]: 2200 ng·h/mL
- Activity [22]: Toxic
- IC50 [23]: 113 nM
- AUC at 24 h [24]: 9000 ng·h/mL
- Activity (Mus musculus [25]): 210%
- Activity [26]: Toxic
- fraction unbound [27]: 0.1
- Activity (Mus musculus [28]): 206%
- Activity [29]: Non-Toxic
- Activity (Mus musculus [30]): 90%
- half-life [31]: 5.4 h
- Activity (Mus musculus [32]): Dose-dependent effect
- Activity [33]: Toxic
- half-life [34]: 6.4 h
- Activity (Mus musculus [35]): Dose-dependent effect
- Activity (Mus musculus [36]): 64%
- Activity (Mus musculus [37]): 202%
- pKa (physchem): 6.8
- Vd [38]: 3.1 L/kg

Reference: ChEMBL document CHEMBL4382198, “Discovery of Risdiplam, a Selective Survival of Motor Neuron-2 ( SMN2) Gene Splicing Modifier for the Treatment of Spinal Muscular Atrophy (SMA)” (J Med Chem, 2018)
